One data set is described as follows: in vitro. The following applies: human, hela cells, % viability.
Regarding `O=C(O)c1ccc(NS(=O)(=O)/C=C/c2ccccc2)cc1` [CBK034062], the viability at 28.5 h, 10 µM is 100%.
Same read-out and setting: then `CC1CCC(C(C)C)C(OCC(O)CN2CCN(C)CC2)C1` (stereo not drawn) [CBK278213C], with 105%; and `COc1cc(F)ccc1-c1ccc(NS(C)(=O)=O)c2ccccc12` [CBK083744], with 97.9%; and `O=C1CC2(CCN(Cc3ccc(C(F)(F)F)cc3)CC2)CN1` [CBK283359], with 86.8%.
Take `Nc1nc(Cl)c2ncn([C@@H]3O[C@H](CO)[C@H](O)C3O)c2n1` (stereo partly drawn) [CBK201291]: the viability at 28.5 h, 10 µM turned out to be 81%.
Still for that read-out and setting: then `CC(OC(=O)C1CCCCC1)c1nc2ccccc2[nH]1` (stereo not drawn) [CBK111483], with 107%.
As to `CNC(=O)CSc1ncnc2c1cnn2-c1ccc(F)cc1` [CBK287633], the viability at 28.5 h, 10 µM was determined as 94.4%.
As to `CCOC(=O)c1cccc(-n2ncc(CN(C)C)n2)c1` [CBK112866], the viability at 28.5 h, 10 µM was found to be 91.4%.
The same measure, in the same setting: the same measure for `CC1c2ccsc2CCN1C(=O)c1ccnn1C(C)C` (stereo not drawn) [CBK282079]: 89.2%; for `Cc1nc(N)nc(NCC2CCN(C3CC3)C2)c1Cl` (stereo not drawn) [CBK306575]: 85.9%; for `CC(C)Nc1cc(SCc2ccc(F)cc2)ncn1` [CBK107158]: 93.9%.
Still for that read-out and setting: then `O=C(COc1ccccc1C1CC(=O)Nc2ccc3ccccc3c21)Nc1ccccc1` (stereo not drawn) [CBK265704], with 97.3%.
On the same count and under the same terms, the same measure for `Cn1cc(CNS(=O)(=O)c2ccc(F)c(Br)c2)cn1` [CBK305174]: 92.5%; for `CC1CCC2(CC1)N=C(N)Nc1nc3ccccc3n12` (stereo not drawn) [CBK277657]: 88.4%.
Turning to `CC(=O)c1ccc(N2CCN(Cc3cc(C(C)(C)C)c(O)c(C(C)(C)C)c3)CC2)cc1` [CBK261749], the viability at 28.5 h, 10 µM stood at 87.2%.
Still for that read-out and setting: then `COc1cc(C)ccc1S(=O)(=O)Nc1cccc2cc[nH]c12` [CBK159511], with 81.8%; and `NC(=O)c1cn[nH]c1C1CCCCN1Cc1cccc2c1CCOC2` (stereo not drawn) [CBK304745], with 83.1%; and `CCOc1cc(S(=O)(=O)NCCCN2CCOCC2)ccc1Br` [CBK270111], with 87.4%.
The same measure, in the same setting: the same measure for `Cc1nn(C)c(C)c1NC(=O)CN1CCN(c2ccccc2Cl)CC1` [CBK306058]: 82.6%; for `Cc1ccccc1OCC(O)CN1CCCC(C(F)(F)F)C1` (stereo not drawn) [CBK304873]: 103%; for `Cn1cncc1CN(CCCn1ccnc1)Cc1ccccc1F` [CBK282960]: 85%.
Still for that read-out and setting: the same measure for `Cc1csc(C(Cc2ccsc2)NCC2=CCCOC2)n1` (stereo not drawn) [CBK282439]: 101%; for `COc1ccc2c(c1)-c1c(ss/c1=N\c1ccc(S(N)(=O)=O)cc1)C(C)(C)N2` [CBK263339]: 88.7%; for `COc1ccc(Cl)cc1NC(=O)CN(c1cc(C(F)(F)F)ccc1Cl)S(C)(=O)=O` [CBK264724]: 82.5%.
Turning to `Cc1cc(Cl)c(OCCNCCO)c(Br)c1` [CBK265066G], the viability at 28.5 h, 10 µM is 122%.
On the same count and under the same terms, then `COc1ccc(-c2csc(NC(=O)NS(=O)(=O)c3ccc(C)cc3)n2)cc1` [CBK296117], with 88%; and `COc1ccc(CC(=O)N2CC=C(c3ccc(C)o3)CC2)cc1` [CBK283572], with 92.4%; and `Cc1cc2c(cc3c(=O)n(CC(=O)NC4CCC4)nc(C)n32)s1` [CBK284118], with 107%.
In the case of `CCOc1cc(Br)ccc1S(=O)(=O)NCc1ccc2c(c1)OCO2` [CBK268813], the viability at 28.5 h, 10 µM is 108%.
As for `COc1ccc(S(=O)(=O)n2ccn(C(c3ccccc3)c3ccccc3)c2=O)cc1OC` [CBK106621], the viability at 28.5 h, 10 µM was 89.1%.
In the case of `CCOC(=O)c1c(NC(=O)CSc2nnc(C)s2)sc2c1CCC2` [CBK263183], the viability at 28.5 h, 10 µM was 91.2%.
`O=S(=O)(Nc1cc(O[C@@H]2CCNC2)c2occc2c1)c1ccccc1Br` [CBK200020C]: the viability at 28.5 h, 10 µM stood at 89.6%.
On the same count and under the same terms, the same measure for `CCOc1cc2c(cc1CN1CCN(Cc3noc(C)n3)CC1)CCC2` [CBK307138]: 83.1%; for `O=C(c1ccco1)N1CCc2c([nH]c3ccccc23)C12CCN(Cc1ccccc1)CC2` [CBK286313]: 91%; for `COc1ccc(/C=N/NC(=O)C2CCN(c3ncc(C(F)(F)F)cc3Cl)CC2)cc1` [CBK007433]: 102%.
Same read-out and setting: then `OC1CCC(Nc2cncc(-c3ccc(F)cc3F)n2)CC1` (stereo not drawn) [CBK065835], with 107%; and `O=C(Nc1ccc2c(c1)nc1n2CCN(Cc2ccccc2)C1)NC1CCCCC1` [CBK267033], with 109%.
On the same count and under the same terms, the same measure for `O=C(NC1CCCCC1)c1cc(Br)cnc1NCc1cccnc1` [CBK076439]: 91%; for `O=[N+]([O-])c1ccccc1S(=O)(=O)Nc1ccc(S(=O)(=O)Nc2ccccc2)cc1` [CBK264796]: 106%.
Take `CN(C)CCN(C)c1cccc(-c2ccc(CCC(=O)O)cc2)n1` [CBK036983]: the viability at 28.5 h, 10 µM worked out at 105%.
Same read-out and setting: the same measure for `CN1CCCCC1CC(=O)Nc1ccc2ncn(C)c2c1` (stereo not drawn) [CBK281747]: 87.6%; for `CCN(CC)C(=O)Cn1nc2c(C)cc3cc(C)ccc3n2c1=O` [CBK283871]: 86.4%.
On the same count and under the same terms, the same measure for `CCCC(CCC(=O)Nc1ccccc1Cl)C(=O)O` (stereo not drawn) [CBK286757]: 120%; for `N#CCCCN1CCC(Oc2nccnc2OCc2cccnc2)CC1` [CBK083171]: 85.9%; for `CC1(CC(=O)N2CCCCCC2)SC(NC2CCCCCC2)=NC1=O` (stereo not drawn) [CBK074269]: 96%.
The same measure, in the same setting: then `CS(=O)(=O)Cc1cccc(C(=O)Nc2ccc(Oc3ccccc3)cc2)c1` [CBK297111], with 87.5%.
For `COc1ccc(-c2nnn(C3CCNCC3)n2)cc1OC` [CBK269870C], the viability at 28.5 h, 10 µM was 85.3%.
The same measure, in the same setting: the same measure for `OCCOc1cccc(OCCOc2nccnc2N2CCNCC2)c1` [CBK014339G]: 112%.
Same read-out and setting: then `O=C(O)CC1SC(Nc2cccc(Cl)c2)=NC1=O` (stereo not drawn) [CBK131683], with 105%; and `COc1ccccc1N/C(=N\OCc1ccc(Cl)cc1Cl)c1nonc1N` [CBK018391], with 91%.
Take `CC(=O)N1CCc2c([nH]c3cc(F)ccc23)C12CCN(CCC#N)CC2` [CBK039692]: the viability at 28.5 h, 10 µM is 95.7%.
The same measure, in the same setting: the same measure for `Cc1nn(C(C)CC(=O)NCCN2CCc3ccccc32)c(C)c1C` (stereo not drawn) [CBK282675]: 87.1%; for `CSCCC(NC(=O)C1CCC(C)CC1)C(=O)O` (stereo not drawn) [CBK286552]: 87.5%.
Still for that read-out and setting: then `O=C(Nc1ccc2ncccc2c1)c1cccnc1` [CBK159820], with 94.1%.
Take `O=C1NNC=Cc2c1cnc1nc(C(F)(F)F)nn21` [CBK288156]: the viability at 28.5 h, 10 µM came out at 93.3%.
Same read-out and setting: the same measure for `COc1ccc(N2C(=O)CC(N3CCN(c4ccc(S(=O)(=O)N5CCCC5)cc4)CC3)C2=O)cc1` (stereo not drawn) [CBK268851]: 85.1%.
As for `O=C(O)c1cccc(N2C(=O)C3C4C=CC(CO)(O4)C3C2=O)c1` (stereo not drawn) [CBK287066], the viability at 28.5 h, 10 µM stood at 103%.
In the case of `CCN(Cc1ccccc1)C(=O)NCCCN1CCN(C)CC1` [CBK155212], the viability at 28.5 h, 10 µM was 102%.
Still for that read-out and setting: the same measure for `O=c1[nH]cnc2c([C@@H]3O[C@H](CO)[C@H](O)C3O)n[nH]c12` (stereo partly drawn) [CBK201242]: 98.1%; for `CCN(C)CC(=O)N1CCC(Oc2cc(C)ccc2F)(C(=O)O)CC1` [CBK307020]: 105%.
The same measure, in the same setting: then `O=C(NCCc1ccc(Cl)cc1)C1(Cc2ccc(-c3cccnc3)cc2)CCOCC1` [CBK285589], with 94.6%; and `CC(C)NC(=O)c1sc2ccccc2c1C1CCN(S(=O)(=O)c2ccccc2)C1` (stereo not drawn) [CBK285927], with 83.1%; and `O=C(Cc1cc(C(=O)O)c2ccccc2n1)Nc1ccccc1` [CBK268227], with 96.3%.
The same measure, in the same setting: then `COc1cccc(Oc2nccnc2/C=C/c2ccccc2)c1` [CBK106877], with 107%.
On to `FC(F)(F)Oc1cccc(OCCOc2nccnc2N2CCNCC2)c1` [CBK014323G], for which the viability at 28.5 h, 10 µM is 100%.
Regarding `FC(F)(F)c1ccc(CN2CCCC3(C2)NCCc2c3[nH]c3ccccc23)cc1` (stereo not drawn) [CBK040095], the viability at 28.5 h, 10 µM worked out at 94.2%.
Still for that read-out and setting: the same measure for `Cc1cc(NC(=O)Cc2ccccc2)nc2c1c(=O)oc1ccccc12` [CBK291127]: 102%; for `Cc1cc(C)nc(-n2ncc(C#N)c2N)n1` [CBK270227]: 87%.
Take `Cc1cnc2[nH]c(C(F)(F)F)c(CN3CCCC(CO)C3)c2c1` (stereo not drawn) [CBK285167]: the viability at 28.5 h, 10 µM was found to be 93.6%.
Regarding `O=S(=O)(NCc1cccnc1)c1ccc(Cl)c(Cl)c1Cl` [CBK264032], the viability at 28.5 h, 10 µM worked out at 91.1%.
The same measure, in the same setting: then `COC1C(O)C(CO)OC1n1cnc2c(N)nc(N)nc21` (stereo not drawn) [CBK201241], with 95.4%; and `O=C(CC1CCN(C(=O)CC2CCCCC2)CC1)NCc1ccccc1N1CCCC1` [CBK285962], with 99.2%; and `COc1ccccc1CN(CCCn1ccnc1)Cc1ccoc1` [CBK283123], with 97.2%.
With `CC(C)C(=O)Nc1ccc2ccc(-c3ccc(C(C)(C)C)cc3)nc2n1` [CBK073669], the viability at 28.5 h, 10 µM was 106%.
In the case of `COC(=O)c1ccc(N2C(=O)CC(SCCc3nc4ccccc4[nH]3)C2=O)cc1` (stereo not drawn) [CBK267188], the viability at 28.5 h, 10 µM amounted to 88.5%.
On the same count and under the same terms, then `Cc1cc(C)n(CCCN(C)Cc2c(C)nc3ccccn23)n1` [CBK281901], with 90%.
In the case of `O=C1OCc2ccc3c(c21)COCO3` [CBK022696], the viability at 28.5 h, 10 µM was found to be 107%.
The same measure, in the same setting: the same measure for `O=C(NCc1csc(-c2ccccc2)n1)c1ccccc1OC(F)F` [CBK092332]: 95%; for `Nc1ccc(-c2cccc(C(F)(F)F)c2)c2ccccc12` [CBK084324]: 80%.
Same read-out and setting: the same measure for `COc1cncc(-c2cnc(N)c(NCc3cccnc3)n2)c1` [CBK063531]: 110%.

Staying with this data set, now noted: human, hela cells, % viability, bulk resorufin, single well.
With `O=C(NCCc1cccs1)N1CCC2(CC1)OCc1cc(F)ccc1O2` [CBK060769], the viability at 28.5 h, 10 µM worked out at 98.3%.

Broadly, the viability is a read-out of living cells in per cent, often relative to untreated cells.

Source of the values: article PMC12040169 (PLOS Biology, 2025).
